Source: patent US7235379B2, “Method and medium for the detection/identification of microorgranisms with esterase activity” (Bio Merieux, priority 2000, dated 2007)
Counter-ions that a name gives are not always drawn.

How the values were obtained:
Assay type in all cases: cell-based
Serratia marcescens 038 = test: Ex.2 colony coloration, 5-bromo-3-indolyl nonanoate, methanol/bile salts, MacConkey; as to intensity of coloration: key: 0: no activity; 0.1: trace of coloration; 0.5: very pale coloration; 1: distinct coloration of low intensity; 2: clear coloration of medium intensity; 3: intense coloration; 4: very intense coloration
Procedure: (§1) The esterase substrate tested is 5-bromo-3-indolyl nonanoate. A 25 g/l stock solution of substrate is prepared in methanol to which 5 g/l of bile salts have been added. A sufficient volume is added to a supercooled MacConkey medium (without neutral red) to give a substrate concentration of 500 mg/l.
(§2) Microorganisms originating from the Applicant's collection were inoculated onto this medium from a 0.5 McFarland suspension by isolation in three quadrants. The dishes were incubated at 37° C. for 48 hours. The colonies formed were examined visually after 24 and 48 hours of incubation. The coloration of these colonies and the intensity of this coloration were noted.
(§3) The intensity of coloration corresponds to an arbitrary scale defined as follows:

[1] = tested on: Staphylococcus epidermidis 009; test: Ex.3 colony coloration, 5-bromo-4-chloro-3-indolyl nonanoate 250 mg/l, DMSO/Tween 20; also: key: 0: no activity; 0.1: trace of coloration; 0.5: very pale coloration; 1: distinct coloration of low intensity; 2: clear coloration of medium intensity; 3: intense coloration; 4: very intense coloration
Procedure: (§4) The esterase substrate tested is 5-bromo-4-chloro-3-indolyl nonanoate. A 40 g/l stock solution of substrate is prepared in a mixture of 40% dimethyl sulfoxide and 60% Tween 20. A sufficient volume is added to a supercooled MacConkey medium (without neutral red) to give a substrate concentration of 250 mg/l.
as §2, §3

Listeria innocua 029 = test: as above; also: key: 0: no activity; 0.1: trace of coloration; 0.5: very pale coloration; 1: distinct coloration of low intensity; 2: clear coloration of medium intensity; 3: intense coloration; 4: very intense coloration
Procedure: as §4, §2, §3

[2] = tested on: Acinetobacter calcoaceticus 034; test: Ex.1 colony coloration, 5-bromo-3-indolyl nonanoate, DMSO/Tween 20, MacConkey
Procedure: The esterase substrate tested is 5-bromo-3-indolyl nonanoate. A 40 g/l stock solution of substrate is prepared in a mixture of 40% dimethyl sulfoxide and 60% Tween 20. A sufficient volume is added to a supercooled MacConkey medium (without neutral red) to give a substrate concentration of 500 mg/l.
as §2, §3

[3] = tested on: Acinetobacter calcoaceticus 034; test: Ex.2 colony coloration, 5-bromo-3-indolyl nonanoate, methanol/bile salts, MacConkey
Procedure: as §1, §2, §3

Candida tropicalis 030 = test: Ex.3 colony coloration, 5-bromo-4-chloro-3-indolyl nonanoate 250 mg/l, DMSO/Tween 20; also: key: 0: no activity; 0.1: trace of coloration; 0.5: very pale coloration; 1: distinct coloration of low intensity; 2: clear coloration of medium intensity; 3: intense coloration; 4: very intense coloration
Procedure: as §4, §2, §3

CCCCC(CC)CCC(CC(C)C)OS(=O)(=O)O (centres unmarked) [Tergitol 4, 7-ethyl-2-methyl-4-undecanoate hydrogensulfate or its sodium salt]
color (Serratia marcescens 038; 2 ml/l, 24 h): gray | intensity of coloration (Serratia marcescens 038; 2 ml/l, 24 h): 2 | color (Serratia marcescens 038; 2 ml/l, 48 h): gray | intensity of coloration (Serratia marcescens 038; 2 ml/l, 48 h): 3 | color (Serratia marcescens 038; 4 ml/l, 24 h): gray | intensity of coloration (Serratia marcescens 038; 4 ml/l, 24 h): 2 | color (Serratia marcescens 038; 4 ml/l, 48 h): gray | intensity of coloration (Serratia marcescens 038; 4 ml/l, 48 h): 4 | color (Serratia marcescens 038; 8 ml/l, 24 h): gray | intensity of coloration (Serratia marcescens 038; 8 ml/l, 24 h): 2 | color (Serratia marcescens 038; 8 ml/l, 48 h): gray | intensity of coloration (Serratia marcescens 038; 8 ml/l, 48 h): 4 | color (Serratia marcescens 038; 16 ml/l, 24 h): gray | intensity of coloration (Serratia marcescens 038; 16 ml/l, 24 h): 2 | color (Serratia marcescens 038; 16 ml/l, 48 h): gray | intensity of coloration (Serratia marcescens 038; 16 ml/l, 48 h): 4 | intensity of coloration ([1]; 0.001 ml/l, 24 h): 2 | intensity of coloration ([1]; 0.001 ml/l, 48 h): 2 | intensity of coloration ([1]; 0.01 ml/l, 24 h): 3 | intensity of coloration ([1]; 0.01 ml/l, 48 h): 3 | intensity of coloration ([1]; 0.1 ml/l, 24 h): 2 | intensity of coloration ([1]; 0.1 ml/l, 48 h): 3 | intensity of coloration ([1]; 1 ml/l (1st col), 24 h): 2 | intensity of coloration ([1]; 1 ml/l (1st col), 48 h): 2 | intensity of coloration ([1]; 1 ml/l (2nd col), 24 h): 0.5 | intensity of coloration ([1]; 1 ml/l (2nd col), 48 h): 3 | intensity of coloration (Listeria innocua 029; 0.001 ml/l, 24 h): 0.1 | intensity of coloration (Listeria innocua 029; 0.001 ml/l, 48 h): 2 | intensity of coloration (Listeria innocua 029; 0.01 ml/l, 24 h): 0.1 | intensity of coloration (Listeria innocua 029; 0.01 ml/l, 48 h): 2 | intensity of coloration (Listeria innocua 029; 0.1 ml/l, 24 h): 0.1 | intensity of coloration (Listeria innocua 029; 0.1 ml/l, 48 h): 2 | intensity of coloration (Listeria innocua 029; 1 ml/l (1st col), 24 h): 0.1 | intensity of coloration (Listeria innocua 029; 1 ml/l (1st col), 48 h): 2 | intensity of coloration (Listeria innocua 029; 1 ml/l (2nd col), 24 h): 0.1 | intensity of coloration (Listeria innocua 029; 1 ml/l (2nd col), 48 h): 2 | color ([2]; 2 ml/l, 24 h): gray | intensity of coloration ([2]; 2 ml/l, 24 h): 2 | color ([2]; 2 ml/l, 48 h): gray | intensity of coloration ([2]; 2 ml/l, 48 h): 3 | color ([2]; 4 ml/l, 24 h): gray | intensity of coloration ([2]; 4 ml/l, 24 h): 3 | color ([2]; 4 ml/l, 48 h): gray | intensity of coloration ([2]; 4 ml/l, 48 h): 3 | color ([2]; 8 ml/l, 24 h): gray | intensity of coloration ([2]; 8 ml/l, 24 h): 3 | color ([2]; 8 ml/l, 48 h): gray | intensity of coloration ([2]; 8 ml/l, 48 h): 4 | color ([2]; 16 ml/l, 24 h): gray | intensity of coloration ([2]; 16 ml/l, 24 h): 0.5 | color ([2]; 16 ml/l, 48 h): gray | intensity of coloration ([2]; 16 ml/l, 48 h): 0.5 | color ([3]; 2 ml/l, 24 h): gray | intensity of coloration ([3]; 2 ml/l, 24 h): 2 | color ([3]; 2 ml/l, 48 h): gray | intensity of coloration ([3]; 2 ml/l, 48 h): 3 | color ([3]; 4 ml/l, 24 h): gray | intensity of coloration ([3]; 4 ml/l, 24 h): 3 | color ([3]; 4 ml/l, 48 h): gray | intensity of coloration ([3]; 4 ml/l, 48 h): 3 | color ([3]; 8 ml/l, 24 h): gray | intensity of coloration ([3]; 8 ml/l, 24 h): 3 | color ([3]; 8 ml/l, 48 h): gray | intensity of coloration ([3]; 8 ml/l, 48 h): 4 | color ([3]; 16 ml/l, 24 h): gray | intensity of coloration ([3]; 16 ml/l, 24 h): 0.5 | color ([3]; 16 ml/l, 48 h): gray | intensity of coloration ([3]; 16 ml/l, 48 h): 0.5 | intensity of coloration (Candida tropicalis 030; 0.001 ml/l, 24 h): 2 | intensity of coloration (Candida tropicalis 030; 0.001 ml/l, 48 h): 3 | intensity of coloration (Candida tropicalis 030; 0.01 ml/l, 24 h): 2 | intensity of coloration (Candida tropicalis 030; 0.01 ml/l, 48 h): 3 | intensity of coloration (Candida tropicalis 030; 0.1 ml/l, 24 h): 2 | intensity of coloration (Candida tropicalis 030; 0.1 ml/l, 48 h): 3 | intensity of coloration (Candida tropicalis 030; 1 ml/l (1st col), 24 h): 0.5 | intensity of coloration (Candida tropicalis 030; 1 ml/l (1st col), 48 h): 3 | intensity of coloration (Candida tropicalis 030; 1 ml/l (2nd col), 24 h): 0.5
